Data published in ChEMBL document CHEMBL1201862, “PubChem BioAssay data set” (2004).
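Cells were grown in 96-well plates and exposed to each compound for 48 hours at five concentrations; endpoints were interpolated linearly between bracketing concentrations, or set to the highest concentration if not reached. The concentration for 50% growth inhibition is given as GI50.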 The source made the active and inactive calls. Cut-off read from the data, not from the text of the source: active = GI50 up to about 1.1 µM and inactive = higher.

How the values were obtained:
Experiment in all cases: NCI-60 cell line screen, 48 h
T47D = test system: T47D
MCF7 = test system: MCF7
BT-549 = test system: BT-549
DU-145 = test system: DU-145
SK-MEL-28 = test system: SK-MEL-28
XF498 = test system: XF498
DLD-1 = test system: DLD-1
KM12 = test system: KM12
SN12C = test system: SN12C
SR = test system: SR
HOP-18 = test system: HOP-18
HOP-62 = test system: HOP-62
SNB-19 = test system: SNB-19
SNB-78 = test system: SNB-78
Hs-578T = test system: Hs-578T
PC-3 = test system: PC-3
K562 = test system: K562
SK-MEL-2 = test system: SK-MEL-2
IGROV-1 = test system: IGROV-1
MDA-MB-231 = test system: MDA-MB-231

SMILES: Oc1cc(-n2cccn2)c(O)cc1-n1cccn1
- GI50 (T47D): 22.3 µM (inactive)
- GI50 (MCF7): 19.1 µM (inactive)
- GI50 (BT-549): 18.7 µM (inactive)
- GI50 (DU-145): > 48.2 µM (inactive)
- GI50 (SK-MEL-28): 40.8 µM (inactive)
- GI50 (XF498): 16.3 µM (inactive)
- GI50 (DLD-1): 32.6 µM (inactive)
- GI50 (KM12): 57.7 µM (inactive)
- GI50 (SN12C): 19.3 µM (inactive)
- GI50 (SR): 12.6 µM (inactive)
- GI50 (HOP-18): 67.9 µM (inactive)
- GI50 (HOP-62): > 63.1 µM (inactive)
- GI50 (SNB-19): > 70.1 µM (inactive)
- GI50 (SNB-78): 34.8 µM (inactive)
- GI50 (Hs-578T): > 100 µM (inactive)
- GI50 (PC-3): 21.6 µM (inactive)
- GI50 (K562): 11.2 µM (inactive)
- GI50 (SK-MEL-2): > 88.5 µM (inactive)
- GI50 (IGROV-1): 54.6 µM (inactive)
- GI50 (MDA-MB-231): 21.9 µM (inactive)

SMILES: C=C1C(=O)O[C@H]2C1[C@H](OC(=O)/C(C)=C\COC(C)=O)C[C@]1(CO1)[C@@H]1[C@H](O)[C@H]3O[C@@]3(C)[C@@H]12 (stereo not given in full)
- GI50 (MCF7): 11.5 µM (inactive)
- GI50 (SK-MEL-28): 15.5 µM (inactive)
- GI50 (XF498): 19.3 µM (inactive)
- GI50 (DLD-1): 12.2 µM (inactive)
- GI50 (KM12): 14.8 µM (inactive)
- GI50 (SN12C): 22.3 µM (inactive)
- GI50 (HOP-18): 20 µM (inactive)
- GI50 (HOP-62): > 100 µM (inactive)
- GI50 (SNB-19): > 100 µM (inactive)
- GI50 (SNB-78): 25.9 µM (inactive)
- GI50 (K562): 15.2 µM (inactive)
- GI50 (SK-MEL-2): 20.7 µM (inactive)
- GI50 (IGROV-1): 24 µM (inactive)

SMILES: O=C(Nc1ccc(C(F)(F)F)cc1[N+](=O)[O-])C(=O)Nn1c(S)nc2ccccc2c1=O
- GI50 (SK-MEL-28): > 100 µM (inactive)
- GI50 (XF498): > 100 µM (inactive)
- GI50 (DLD-1): > 100 µM (inactive)
- GI50 (KM12): > 100 µM (inactive)
- GI50 (SN12C): > 100 µM (inactive)
- GI50 (SR): > 100 µM (inactive)
- GI50 (HOP-18): > 100 µM (inactive)
- GI50 (HOP-62): > 100 µM (inactive)
- GI50 (SNB-19): > 100 µM (inactive)
- GI50 (SNB-78): > 100 µM (inactive)
- GI50 (K562): > 100 µM (inactive)
- GI50 (SK-MEL-2): > 100 µM (inactive)
- GI50 (IGROV-1): > 100 µM (inactive)

SMILES: C=C1C(=O)OC2/C=C(\C)CC(O)/C=C(/CO)CC(OC(=O)/C(C)=C/C)C12 (stereo not given)
- GI50 (MCF7): 21.7 µM (inactive)
- GI50 (SK-MEL-28): 14.8 µM (inactive)
- GI50 (XF498): 12.2 µM (inactive)
- GI50 (DLD-1): 26.8 µM (inactive)
- GI50 (KM12): 45 µM (inactive)
- GI50 (SN12C): 131 µM (inactive)
- GI50 (HOP-18): 26.3 µM (inactive)
- GI50 (HOP-62): 95.3 µM (inactive)
- GI50 (SNB-19): 114 µM (inactive)
- GI50 (SNB-78): 49.4 µM (inactive)
- GI50 (K562): 18 µM (inactive)
- GI50 (SK-MEL-2): 51.9 µM (inactive)
- GI50 (IGROV-1): 37.8 µM (inactive)

SMILES: O=C(CC(=O)c1ccc([N+](=O)[O-])cc1)C(=O)Nc1nccs1
- GI50 (SK-MEL-28): > 81.5 µM (inactive)
- GI50 (XF498): > 100 µM (inactive)
- GI50 (DLD-1): > 100 µM (inactive)
- GI50 (KM12): > 100 µM (inactive)
- GI50 (SN12C): > 100 µM (inactive)
- GI50 (SR): > 100 µM (inactive)
- GI50 (HOP-18): > 100 µM (inactive)
- GI50 (HOP-62): > 100 µM (inactive)
- GI50 (SNB-19): > 100 µM (inactive)
- GI50 (SNB-78): > 100 µM (inactive)
- GI50 (K562): > 100 µM (inactive)
- GI50 (SK-MEL-2): > 100 µM (inactive)
- GI50 (IGROV-1): > 100 µM (inactive)

SMILES: O=c1cc(-c2ccccc2)oc2cc(OCCCOc3ccc4c(=O)cc(-c5ccccc5)oc4c3)ccc12
- GI50 (SK-MEL-28): > 100 µM (inactive)
- GI50 (XF498): > 100 µM (inactive)
- GI50 (DLD-1): > 100 µM (inactive)
- GI50 (KM12): > 100 µM (inactive)
- GI50 (SN12C): > 100 µM (inactive)
- GI50 (SR): > 100 µM (inactive)
- GI50 (HOP-18): > 100 µM (inactive)
- GI50 (HOP-62): > 100 µM (inactive)
- GI50 (SNB-19): > 100 µM (inactive)
- GI50 (SNB-78): > 100 µM (inactive)
- GI50 (K562): > 100 µM (inactive)
- GI50 (SK-MEL-2): > 100 µM (inactive)
- GI50 (IGROV-1): > 100 µM (inactive)

SMILES: CN(C)CCCNc1ccc2nnn3c4ccc([N+](=O)[O-])cc4c(=O)c1c23
- GI50 (T47D): 11.4 µM (inactive)
- GI50 (MCF7): 1.74 µM (inactive)
- GI50 (BT-549): 5.26 µM (inactive)
- GI50 (DU-145): 1.71 µM (inactive)
- GI50 (SK-MEL-28): 4.6 µM (inactive)
- GI50 (XF498): 1.5 µM (inactive)
- GI50 (DLD-1): 0.931 µM (active)
- GI50 (KM12): 0.986 µM (active)
- GI50 (SN12C): 0.695 µM (active)
- GI50 (SR): 0.617 µM (active)
- GI50 (HOP-18): 0.729 µM (active)
- GI50 (HOP-62): 0.817 µM (active)
- GI50 (SNB-19): 2.73 µM (inactive)
- GI50 (SNB-78): 2.08 µM (inactive)
- GI50 (Hs-578T): 3.81 µM (inactive)
- GI50 (PC-3): 1.28 µM (inactive)
- GI50 (K562): 0.589 µM (active)
- GI50 (SK-MEL-2): 3.12 µM (inactive)
- GI50 (IGROV-1): 1.95 µM (inactive)
- GI50 (MDA-MB-231): 0.274 µM (active)
